Experimental findings from ChEMBL document CHEMBL3244418, “Synthesis and central nervous system activity of quinazolones related to 2-methyl-3-(o-tolyl)-4(3H)-quinazolone (methaqualone)” (J Med Chem, 1977) are described below.

Series [1] relates to Mus musculus. The series can be described thus: Hypnotic activity in ip dosed CFLP mouse assessed as loss of righting reflex. Format: functional.
For series [2], the system named is Mus musculus. The experiment in a line: Anticonvulsant activity in ip dosed CFLP mouse assessed as inhibition of pentylenetetrazole-induced seizure. Format: functional.
The subject of series [3] is Mus musculus. The experiment in a line: Hypnotic activity in ip dosed CFLP mouse after 30 mins by rotary drum test. It is filed as functional. Particulars: 0.5 h.
Series [4] concerns Mus musculus. The series can be described thus: Anticonvulsant activity in ip dosed CFLP mouse assessed as inhibition of maximum electroshock-induced seizure. It is filed as functional.
Series [5] concerns Mus musculus. The series can be described thus: […] activity in po dosed CFLP mouse assessed as inhibition of benzoquinone-induced writhing. Format: functional.
Series [6] can be described thus: Chemical stability of the compound assessed as methaqualone/sulfur/disulfide formation. It is filed as physicochemical.

Consider `Br.N=C(N)SCc1nc2ccccc2c(=O)n1-c1ccccc1`, for which the ED50 (as a rule, the midpoint of the dose-response relation) in the series with Mus musculus [1] is 200 mg/kg; with Mus musculus [2], greater than 50 mg/kg; in the series with Mus musculus [3] it was 42 mg/kg; in the series with Mus musculus [4], 53 mg/kg.
Consider `Br.N=C(N)SCc1nc2ccccc2c(=O)n1-c1ccccc1Cl`, for which the ED50 in the series on Mus musculus [1] is 200 mg/kg; in the series with Mus musculus [5], 90 mg/kg.
Consider `Cc1ccccc1-n1c(CBr)nc2ccccc2c1=O`, for which the ED50 is greater than 200 mg/kg in the series on Mus musculus [1], greater than 200 mg/kg in the series with Mus musculus [3], greater than 200 mg/kg with Mus musculus [4] and greater than 150 mg/kg with Mus musculus [5].
Consider `Cc1ccccc1-n1c(CF)nc2ccccc2c1=O.Cl`, for which the ED50 with Mus musculus [1] is 75 mg/kg; with Mus musculus [2] it was 16 mg/kg; with Mus musculus [3], 18 mg/kg; in the series on Mus musculus [4], 14.5 mg/kg.
`Cc1ccccc1-n1c(CI)nc2ccccc2c1=O`: the ED50 with Mus musculus [1] was greater than 400 mg/kg; in the series on Mus musculus [3], greater than 200 mg/kg; with Mus musculus [4] it was greater than 200 mg/kg.
With `Cc1ccccc1-n1c(C(F)F)nc2ccccc2c1=O`, the ED50 is greater than 400 mg/kg with Mus musculus [1], 50 mg/kg with Mus musculus [2], 100 mg/kg with Mus musculus [3] and greater than 100 mg/kg in the series with Mus musculus [4].
Turning to `Cc1ccccc1-n1c(C(Br)Br)nc2ccccc2c1=O`, the 50% effective dose (ED50) with Mus musculus [1] is greater than 800 mg/kg; in the series on Mus musculus [2], greater than 200 mg/kg; in the series with Mus musculus [3], greater than 200 mg/kg; with Mus musculus [4] it was greater than 200 mg/kg; with Mus musculus [5] it was greater than 400 mg/kg.
As for `Cc1ccccc1-n1c(C(F)(F)F)nc2ccccc2c1=O`, the ED50 was greater than 400 mg/kg with Mus musculus [1]; greater than 200 mg/kg in the series on Mus musculus [2]; greater than 200 mg/kg in the series with Mus musculus [3]; greater than 200 mg/kg in the series on Mus musculus [4]; greater than 200 mg/kg in the series on Mus musculus [5].
Take `COCc1nc2ccccc2c(=O)n1-c1ccccc1C`: the ED50 in the series on Mus musculus [1] was 300 mg/kg; in the series with Mus musculus [2], 100 mg/kg; with Mus musculus [3], 22 mg/kg; in the series on Mus musculus [4], 26 mg/kg; in the series on Mus musculus [5], 100 mg/kg.
As for `CCOCc1nc2ccccc2c(=O)n1-c1ccccc1C`, the ED50 was 300 mg/kg in the series with Mus musculus [1], 27 mg/kg with Mus musculus [3], 64 mg/kg in the series on Mus musculus [4] and greater than 200 mg/kg in the series on Mus musculus [5].
Take `CCCOCc1nc2ccccc2c(=O)n1-c1ccccc1C`: the ED50 in the series with Mus musculus [1] was greater than 400 mg/kg; with Mus musculus [2] it was 150 mg/kg; with Mus musculus [4], greater than 200 mg/kg; in the series with Mus musculus [5], greater than 200 mg/kg.
Turning to `CCCCOCc1nc2ccccc2c(=O)n1-c1ccccc1C`, the ED50 is greater than 400 mg/kg in the series on Mus musculus [1], 88 mg/kg in the series with Mus musculus [3], 120 mg/kg in the series with Mus musculus [4] and greater than 200 mg/kg with Mus musculus [5].
Take `Cc1ccccc1-n1c(CO)nc2ccccc2c1=O`: the 50% effective dose (ED50) with Mus musculus [1] is greater than 400 mg/kg; with Mus musculus [2], 70 mg/kg; in the series on Mus musculus [3], 56 mg/kg; in the series on Mus musculus [4] it was 135 mg/kg; in the series on Mus musculus [5], greater than 200 mg/kg.
Consider `CC(=O)OCc1nc2ccccc2c(=O)n1-c1ccccc1C`, for which the median effective dose (ED50) in the series with Mus musculus [1] is greater than 400 mg/kg; in the series with Mus musculus [2] it was 150 mg/kg; with Mus musculus [3], 155 mg/kg; with Mus musculus [4], 120 mg/kg; with Mus musculus [5], 200 mg/kg.
On the same counts, the results for `Cc1ccccc1-n1c(COC(=O)CCC(=O)O)nc2ccccc2c1=O` are greater than 400 mg/kg, 150 mg/kg, greater than 200 mg/kg, greater than 200 mg/kg and greater than 200 mg/kg.
On the same counts, the results for `CCCSCc1nc2ccccc2c(=O)n1-c1ccccc1C` are greater than 800 mg/kg, 70 mg/kg, 100 mg/kg, 160 mg/kg and greater than 200 mg/kg.
On the same counts, the results for `Cc1ccccc1-n1c(CSC(N)=O)nc2ccccc2c1=O` are 400 mg/kg, 56 mg/kg, 200 mg/kg, 120 mg/kg and greater than 200 mg/kg.
Consider `Cc1ccccc1-n1c(CSC(N)=O)nc2ccccc2c1=O.Cl`, for which the ED50 with Mus musculus [1] worked out at 35 mg/kg; in the series on Mus musculus [3] it was 19 mg/kg; in the series on Mus musculus [4] it was 34 mg/kg; with Mus musculus [5], 200 mg/kg.
As for `Cc1ccccc1-n1c(CSS(=O)(=O)O)nc2ccccc2c1=O`, the 50% effective dose (ED50) with Mus musculus [1] is 150 mg/kg; with Mus musculus [2], 39 mg/kg; in the series with Mus musculus [3] it was 44 mg/kg; in the series with Mus musculus [4], 82 mg/kg; with Mus musculus [5], greater than 200 mg/kg.
On the same counts, the results for `Br.Cc1ccccc1-n1c(CSC(=N)N)nc2ccccc2c1=O` are 56 mg/kg, 28 mg/kg, 35 mg/kg, 65 mg/kg and greater than 50 mg/kg.
On the same counts, the results for `Br.C/N=C(\NC)SCc1nc2ccccc2c(=O)n1-c1ccccc1C` are 100 mg/kg, 23 mg/kg, 32 mg/kg, 25 mg/kg and 51 mg/kg.
As to `Br.CCCC/N=C(\NCCCC)SCc1nc2ccccc2c(=O)n1-c1ccccc1C`, the median effective dose (ED50) in the series on Mus musculus [1] is greater than 100 mg/kg; with Mus musculus [2] it was greater than 40 mg/kg; in the series on Mus musculus [3], 40 mg/kg; in the series with Mus musculus [4], greater than 40 mg/kg; in the series on Mus musculus [5], 200 mg/kg.
Take `Br.Cc1ccc([N+](=O)[O-])cc1-n1c(CSC(=N)N)nc2ccccc2c1=O`: the values for the median effective dose (ED50) in the series on Mus musculus [1] and in the series on Mus musculus [5] were greater than 400 mg/kg and greater than 200 mg/kg, respectively.
`Br.Cc1ccccc1-n1c(CS/C(N)=N/N)nc2ccccc2c1=O`: the ED50 in the series on Mus musculus [1] was determined as 100 mg/kg; in the series on Mus musculus [2], 23 mg/kg; in the series on Mus musculus [3], 15.5 mg/kg; with Mus musculus [4], 35 mg/kg.
On to `Br.Cc1ccccc1-n1c(CSC2=NCCCN2)nc2ccccc2c1=O`, for which the ED50 in the series with Mus musculus [1] was found to be 200 mg/kg; with Mus musculus [3] it was 39 mg/kg; with Mus musculus [4] it was 50 mg/kg; with Mus musculus [5] it was 170 mg/kg.
For `Br.C/N=C(/NC)SCc1nc2ccccc2c(=O)n1-c1ccccc1Cl`, the ED50 is 150 mg/kg with Mus musculus [1]; 40 mg/kg in the series on Mus musculus [2]; 27 mg/kg in the series on Mus musculus [3]; 30 mg/kg with Mus musculus [4]; 200 mg/kg with Mus musculus [5].
In the case of `Br.C/N=C(\NC)SCc1nc2ccccc2c(=O)n1-c1ccccc1`, the median effective dose (ED50) in the series with Mus musculus [1] was greater than 400 mg/kg; in the series with Mus musculus [2] it was 50 mg/kg; with Mus musculus [3] it was greater than 50 mg/kg; with Mus musculus [4], 40 mg/kg; in the series with Mus musculus [5] it was 200 mg/kg.
On the same counts, the results for `Br.N=C(N)SCc1nc2ccccc2c(=O)n1-c1ccccc1F` are 400 mg/kg, 75 mg/kg, 43 mg/kg, 38 mg/kg and 100 mg/kg.
Taken in the same sequence, the figures for `Br.C/N=C(\NC)SCc1nc2ccccc2c(=O)n1-c1ccccc1F` were greater than 400 mg/kg, greater than 50 mg/kg, 54 mg/kg, 45 mg/kg and greater than 50 mg/kg.
On the same counts, the results for `Br.C/N=C(\NC)SCc1nc2ccccc2c(=O)n1-c1cc([N+](=O)[O-])ccc1C` are greater than 50 mg/kg, greater than 10 mg/kg, greater than 10 mg/kg, greater than 10 mg/kg and greater than 10 mg/kg.
With `Br.Cc1c(Cl)cccc1-n1c(CSC(=N)N)nc2ccccc2c1=O`, the 50% effective dose (ED50) in the series with Mus musculus [1] worked out at 400 mg/kg; in the series on Mus musculus [3], 57 mg/kg; in the series with Mus musculus [4], 42 mg/kg; in the series with Mus musculus [5], 200 mg/kg.
On to `Br.Cc1ccccc1-n1c(CSC2=NCCN2)nc2ccccc2c1=O`, for which the ED50 in the series with Mus musculus [1] is 60 mg/kg; in the series on Mus musculus [2], 24 mg/kg; in the series on Mus musculus [3], 42 mg/kg; in the series with Mus musculus [4] it was 44 mg/kg; in the series with Mus musculus [5] it was greater than 50 mg/kg.
Consider `Br.O=c1c2ccccc2nc(CSC2=NCCN2)n1-c1ccccc1Cl`, for which the ED50 in the series with Mus musculus [1] stood at 50 mg/kg; in the series with Mus musculus [2] it was 25 mg/kg; in the series on Mus musculus [3], 12 mg/kg; in the series with Mus musculus [4] it was 18 mg/kg.
On to `Br.O=c1c2ccccc2nc(CSC2=NCCN2)n1-c1ccccc1F`, for which the median effective dose (ED50) amounted to 200 mg/kg with Mus musculus [1]; 100 mg/kg in the series with Mus musculus [2]; 32 mg/kg with Mus musculus [3]; 37.5 mg/kg with Mus musculus [4]; 90 mg/kg with Mus musculus [5].
Taken in the same sequence, the figures for `Br.O=c1c2ccccc2nc(CSC2=NCCN2)n1-c1ccccc1` were 200 mg/kg, greater than 50 mg/kg, greater than 50 mg/kg, 50 mg/kg and 50 mg/kg.
On the same counts, the results for `Br.Cc1ccc([N+](=O)[O-])cc1-n1c(CSC2=NCCN2)nc2ccccc2c1=O` are greater than 400 mg/kg, 150 mg/kg, 86 mg/kg, 100 mg/kg and greater than 200 mg/kg.
Taken in the same sequence, the figures for `Br.O=c1c2ccccc2nc(CSC2=NCCN2)n1-c1ccc(Cl)cc1` were greater than 200 mg/kg, 37.5 mg/kg, 47 mg/kg, 35 mg/kg and greater than 75 mg/kg.
For the compound `Br.Cc1c(Cl)cccc1-n1c(CSC2=NCCN2)nc2ccccc2c1=O`, the ED50 in the series on Mus musculus [1] was 80 mg/kg; in the series with Mus musculus [2], 25 mg/kg; with Mus musculus [3] it was greater than 25 mg/kg; in the series on Mus musculus [4], greater than 25 mg/kg.
With `COc1ccccc1-n1c(CS)nc2ccccc2c1=O`, the Stability entry in series [6] is recorded as “Unstable”.
For `Cc1ccccc1-n1c(C)nc2ccccc2c1=O` [METHAQUALONE], the ED50 was 96 mg/kg in the series with Mus musculus [1]; 14 mg/kg in the series on Mus musculus [2]; 30 mg/kg with Mus musculus [3]; 48 mg/kg in the series on Mus musculus [4]; 36 mg/kg with Mus musculus [5].
